Where two headings read alike, the source gives them in different places.
Tests used:
MARK4 = MARK4 (Homo sapiens (Human), UniProt Q96L34); test: Dundee profiling
CLK2 = CLK2 (Homo sapiens (Human), UniProt P49760); test: Dundee profiling
PHK = test: Dundee profiling
TTBK2 = TTBK2 (Homo sapiens (Human), UniProt Q6IQ55); test: Dundee profiling
Aurora B = Aurora B (Homo sapiens (Human), UniProt Q96GD4); test: Dundee profiling
EGFR (G719C) = EGFR (G719C) (Homo sapiens (Human), UniProt P00533, G719C); test: KinomeScan; format: binding; details: 1 uM
SRPK1 = SRPK1 (Homo sapiens (Human), UniProt Q96SB4); test: Dundee profiling
ZAP70 = ZAP70 (Homo sapiens (Human), UniProt P43403); test: Dundee profiling
RSK2 = RSK2 (Homo sapiens (Human), UniProt P51812); test: Dundee profiling
VEG-FR = test: Dundee profiling
MARK1 = MARK1 (Homo sapiens (Human), UniProt Q9P0L2); test: Dundee profiling
ERK2 = ERK2 (Homo sapiens (Human), UniProt P28482); test: Dundee profiling
SYK = SYK (Homo sapiens (Human), UniProt P43405); test: KinomeScan; format: binding; details: 1 uM
panel of 451 kinases = test: KinomeScan panel selectivity; format: binding; details: 1 μM
Excerpt: The kinase selectivity of Compound 18 was further evaluated by KinomeScan.

IRAK4 = IRAK4 (Homo sapiens (Human), UniProt Q9NWZ3); test: KinomeScan; format: binding; details: 1 uM
NEK6 = NEK6 (Homo sapiens (Human), UniProt Q9HC98); test: Dundee profiling
CAMK1 = CAMK1 (Homo sapiens (Human), UniProt Q14012); test: Dundee profiling
MST1 = MST1 (Homo sapiens (Human), UniProt Q13043); test: KinomeScan; format: binding; details: 1 uM
JNK3 = JNK3 (Homo sapiens (Human), UniProt P53779); test: KinomeScan; format: binding; details: 1 uM
HIPK1 = HIPK1 (Homo sapiens (Human), UniProt Q86Z02); test: Dundee profiling
p38a MAPK = p38a MAPK (Homo sapiens (Human), UniProt Q16539); test: Dundee profiling
EGFR (L861Q) = EGFR (L861Q) (Homo sapiens (Human), UniProt P00533, L861Q); test: KinomeScan; format: binding; details: 1 uM
PAK5 = PAK5 (Homo sapiens (Human), UniProt Q9P286); test: Dundee profiling
ERK8 = ERK8 (Homo sapiens (Human), UniProt Q8TD08); test: Dundee profiling
PINK = test: Dundee profiling
MARK3 = MARK3 (Homo sapiens (Human), UniProt P27448); test: Dundee profiling
LKB1 = LKB1 (Homo sapiens (Human), UniProt Q15831); test: Dundee profiling
EPHB2 = EPHB2 (Homo sapiens (Human), UniProt P29323); test: KinomeScan; format: binding; details: 1 uM
CSNK1G2 = CSNK1G2 (Homo sapiens (Human), UniProt P78368); test: KinomeScan; format: binding; details: 1 uM
CK1δ = CK1δ (Homo sapiens (Human), UniProt P48730); test: Dundee profiling
DAPK1 = DAPK1 (Homo sapiens (Human), UniProt P53355); test: Dundee profiling
[1] = target: JAK1 (JH2domain-pseudokinase) (Homo sapiens (Human), UniProt P23458); test: KinomeScan; format: binding; details: 1 uM
DYRK3 = DYRK3 (Homo sapiens (Human), UniProt O43781); test: Dundee profiling
ULK1 = ULK1 (Homo sapiens (Human), UniProt O75385); test: KinomeScan; format: binding; details: 1 uM
[2] = target: RSK4 (Kin.Dom.1-N-terminal) (Homo sapiens (Human), UniProt Q9UK32); test: KinomeScan; format: binding; details: 1 uM
[3] = read-out: percent remaining enzymatic activity
[4] = read-out: percent remaining enzymatic activity, I1, 1 μM
[5] = read-out: percent remaining enzymatic activity, I10

Chain of ERK2 (P28482 whole entry, looked up, species assumed): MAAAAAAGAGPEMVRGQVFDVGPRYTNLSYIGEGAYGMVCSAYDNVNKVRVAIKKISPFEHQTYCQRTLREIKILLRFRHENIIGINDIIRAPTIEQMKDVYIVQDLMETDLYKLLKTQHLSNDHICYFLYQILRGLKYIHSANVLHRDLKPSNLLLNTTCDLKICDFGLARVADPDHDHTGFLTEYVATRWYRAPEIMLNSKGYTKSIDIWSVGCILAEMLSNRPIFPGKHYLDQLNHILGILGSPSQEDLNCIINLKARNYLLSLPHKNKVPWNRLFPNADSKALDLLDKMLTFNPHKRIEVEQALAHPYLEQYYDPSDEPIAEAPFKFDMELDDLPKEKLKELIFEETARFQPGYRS
Chain of Aurora B (Q96GD4 whole entry): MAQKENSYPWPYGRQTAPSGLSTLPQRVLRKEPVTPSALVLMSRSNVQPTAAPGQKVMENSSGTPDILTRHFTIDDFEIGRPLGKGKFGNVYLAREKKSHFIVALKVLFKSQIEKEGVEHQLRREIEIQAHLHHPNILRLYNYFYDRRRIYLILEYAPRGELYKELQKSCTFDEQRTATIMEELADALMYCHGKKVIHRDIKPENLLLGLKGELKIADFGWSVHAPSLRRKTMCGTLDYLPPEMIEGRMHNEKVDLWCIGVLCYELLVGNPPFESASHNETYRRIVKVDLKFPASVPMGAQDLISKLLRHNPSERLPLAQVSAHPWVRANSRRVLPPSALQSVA
Chain of PAK5 (Q9P286 whole entry): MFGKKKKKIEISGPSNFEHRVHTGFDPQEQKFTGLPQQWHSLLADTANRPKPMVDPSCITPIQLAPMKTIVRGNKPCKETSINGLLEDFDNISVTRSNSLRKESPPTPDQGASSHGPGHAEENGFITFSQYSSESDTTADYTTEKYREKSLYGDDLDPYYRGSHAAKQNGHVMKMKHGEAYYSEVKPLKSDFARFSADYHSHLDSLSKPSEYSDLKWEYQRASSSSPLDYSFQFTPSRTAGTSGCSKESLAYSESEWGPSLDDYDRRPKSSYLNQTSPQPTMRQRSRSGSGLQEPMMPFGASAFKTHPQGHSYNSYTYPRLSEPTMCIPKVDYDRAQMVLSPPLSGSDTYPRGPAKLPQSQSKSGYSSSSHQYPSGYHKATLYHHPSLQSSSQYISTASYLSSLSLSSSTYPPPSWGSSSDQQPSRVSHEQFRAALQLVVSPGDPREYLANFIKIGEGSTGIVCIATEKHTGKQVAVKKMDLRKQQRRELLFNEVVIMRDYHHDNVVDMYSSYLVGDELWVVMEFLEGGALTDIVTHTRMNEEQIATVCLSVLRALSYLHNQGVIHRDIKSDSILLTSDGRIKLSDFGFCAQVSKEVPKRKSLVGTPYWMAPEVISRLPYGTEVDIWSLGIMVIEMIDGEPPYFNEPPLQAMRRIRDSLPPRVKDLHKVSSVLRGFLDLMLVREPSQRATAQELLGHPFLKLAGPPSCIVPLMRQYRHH
Chain of DYRK3 (O43781 whole entry, species assumed): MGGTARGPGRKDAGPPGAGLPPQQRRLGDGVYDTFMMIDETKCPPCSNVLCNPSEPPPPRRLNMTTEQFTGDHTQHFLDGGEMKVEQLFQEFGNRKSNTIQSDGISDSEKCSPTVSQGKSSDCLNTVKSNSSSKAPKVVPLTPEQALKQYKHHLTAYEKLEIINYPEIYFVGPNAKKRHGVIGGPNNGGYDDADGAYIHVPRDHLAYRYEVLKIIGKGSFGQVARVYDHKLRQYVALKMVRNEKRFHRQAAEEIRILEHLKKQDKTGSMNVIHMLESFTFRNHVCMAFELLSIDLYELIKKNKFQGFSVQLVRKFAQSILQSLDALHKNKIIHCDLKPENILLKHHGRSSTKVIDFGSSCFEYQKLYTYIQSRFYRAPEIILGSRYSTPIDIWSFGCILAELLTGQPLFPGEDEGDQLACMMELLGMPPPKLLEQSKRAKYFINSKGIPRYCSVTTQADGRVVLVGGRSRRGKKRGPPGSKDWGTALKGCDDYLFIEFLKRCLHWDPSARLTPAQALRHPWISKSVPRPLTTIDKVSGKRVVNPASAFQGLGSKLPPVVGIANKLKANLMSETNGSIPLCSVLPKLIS
Chain of NEK6 (Q9HC98 whole entry, species assumed): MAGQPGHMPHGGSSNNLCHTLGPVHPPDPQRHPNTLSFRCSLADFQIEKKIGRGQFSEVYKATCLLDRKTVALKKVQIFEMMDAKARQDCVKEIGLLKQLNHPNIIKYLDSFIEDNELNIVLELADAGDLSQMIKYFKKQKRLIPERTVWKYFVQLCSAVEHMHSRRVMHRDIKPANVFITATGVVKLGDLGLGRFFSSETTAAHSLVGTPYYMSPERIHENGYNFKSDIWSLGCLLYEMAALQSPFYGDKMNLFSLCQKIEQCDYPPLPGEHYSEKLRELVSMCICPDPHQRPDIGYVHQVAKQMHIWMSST
Chain of MARK1 (Q9P0L2 whole entry, looked up, species assumed): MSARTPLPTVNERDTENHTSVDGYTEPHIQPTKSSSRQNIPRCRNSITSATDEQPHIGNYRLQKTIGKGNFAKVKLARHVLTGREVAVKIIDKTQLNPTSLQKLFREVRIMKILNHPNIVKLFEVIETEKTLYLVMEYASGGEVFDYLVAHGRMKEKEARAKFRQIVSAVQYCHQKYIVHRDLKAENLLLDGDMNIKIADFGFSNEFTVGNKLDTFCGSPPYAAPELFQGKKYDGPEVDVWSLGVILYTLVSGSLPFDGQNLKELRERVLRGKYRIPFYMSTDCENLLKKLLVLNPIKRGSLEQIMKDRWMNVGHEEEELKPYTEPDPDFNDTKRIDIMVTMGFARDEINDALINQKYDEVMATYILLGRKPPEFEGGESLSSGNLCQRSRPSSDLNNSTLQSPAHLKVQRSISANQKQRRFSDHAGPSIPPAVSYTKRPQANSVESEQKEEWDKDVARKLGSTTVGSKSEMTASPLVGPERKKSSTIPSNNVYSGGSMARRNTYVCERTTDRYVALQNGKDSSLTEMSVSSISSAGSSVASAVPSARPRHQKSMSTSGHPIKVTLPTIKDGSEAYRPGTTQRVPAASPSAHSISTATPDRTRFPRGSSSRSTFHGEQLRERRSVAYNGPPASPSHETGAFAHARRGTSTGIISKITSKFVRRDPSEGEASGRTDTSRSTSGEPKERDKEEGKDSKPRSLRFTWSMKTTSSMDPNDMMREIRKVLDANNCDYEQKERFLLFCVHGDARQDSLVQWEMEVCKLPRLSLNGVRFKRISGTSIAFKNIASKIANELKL
Chain of LKB1 (Q15831 whole entry, species assumed): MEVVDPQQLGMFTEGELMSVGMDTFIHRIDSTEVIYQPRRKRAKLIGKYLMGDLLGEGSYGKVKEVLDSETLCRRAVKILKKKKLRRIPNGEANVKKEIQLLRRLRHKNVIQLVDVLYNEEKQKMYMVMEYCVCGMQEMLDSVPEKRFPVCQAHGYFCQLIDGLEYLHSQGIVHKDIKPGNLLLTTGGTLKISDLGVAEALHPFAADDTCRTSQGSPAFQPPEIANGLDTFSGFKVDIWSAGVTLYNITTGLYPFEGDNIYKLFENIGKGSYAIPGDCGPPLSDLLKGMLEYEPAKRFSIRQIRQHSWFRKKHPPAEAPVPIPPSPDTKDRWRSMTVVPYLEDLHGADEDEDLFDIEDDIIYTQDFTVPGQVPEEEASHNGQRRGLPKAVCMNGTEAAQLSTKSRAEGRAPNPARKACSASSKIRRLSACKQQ
Chain of LKB1 (Q7RTN6 whole entry partner, species assumed): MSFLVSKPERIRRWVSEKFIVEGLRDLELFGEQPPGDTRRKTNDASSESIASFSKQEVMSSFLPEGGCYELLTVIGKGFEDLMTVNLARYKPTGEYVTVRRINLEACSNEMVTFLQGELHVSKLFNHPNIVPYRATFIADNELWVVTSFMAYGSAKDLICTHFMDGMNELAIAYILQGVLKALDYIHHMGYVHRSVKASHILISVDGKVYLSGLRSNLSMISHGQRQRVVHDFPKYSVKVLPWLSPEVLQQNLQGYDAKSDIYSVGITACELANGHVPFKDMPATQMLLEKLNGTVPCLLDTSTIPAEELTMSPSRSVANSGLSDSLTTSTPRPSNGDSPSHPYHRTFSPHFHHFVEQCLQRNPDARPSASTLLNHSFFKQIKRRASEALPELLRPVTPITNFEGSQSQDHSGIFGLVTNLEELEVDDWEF
Chain of LKB1 (Q9Y376 whole entry partner, species assumed): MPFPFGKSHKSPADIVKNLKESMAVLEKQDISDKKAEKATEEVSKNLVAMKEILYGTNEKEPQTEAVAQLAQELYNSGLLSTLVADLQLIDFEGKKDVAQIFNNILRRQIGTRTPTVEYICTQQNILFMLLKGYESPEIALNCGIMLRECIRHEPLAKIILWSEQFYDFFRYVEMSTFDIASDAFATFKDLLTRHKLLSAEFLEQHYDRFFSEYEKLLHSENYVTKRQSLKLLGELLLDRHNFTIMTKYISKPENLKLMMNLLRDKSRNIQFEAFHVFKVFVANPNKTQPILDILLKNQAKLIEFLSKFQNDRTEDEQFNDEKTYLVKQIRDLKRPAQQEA
Chain of CK1δ (P48730 whole entry): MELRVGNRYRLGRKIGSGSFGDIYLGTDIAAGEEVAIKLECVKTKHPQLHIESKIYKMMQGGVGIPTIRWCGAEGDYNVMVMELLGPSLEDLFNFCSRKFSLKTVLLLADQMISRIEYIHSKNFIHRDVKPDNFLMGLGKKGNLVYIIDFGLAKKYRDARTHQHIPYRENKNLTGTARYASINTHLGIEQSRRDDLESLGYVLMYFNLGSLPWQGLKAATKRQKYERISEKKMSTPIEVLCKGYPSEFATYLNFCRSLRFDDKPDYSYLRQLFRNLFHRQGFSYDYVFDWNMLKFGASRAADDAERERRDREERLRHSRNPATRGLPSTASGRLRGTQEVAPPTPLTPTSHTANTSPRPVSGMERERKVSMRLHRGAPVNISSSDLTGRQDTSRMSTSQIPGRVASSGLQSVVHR

`CNc1nc(Nc2ccc(C(=O)N3CCOCC3)cc2OC)nc2[nH]cc(Cl)c12` [Compound 18, (4-((5-chloro-4-(methylamino)-7H-pyrrolo[2,3-d]pyrimidin-2-yl)amino)-3-methoxyphenyl)(morpholino)methanone] was tested, and the “percent remaining enzymatic activity” value (MARK4; I10) was 98%, the remaining activity at 1 µM (MARK4; [3]) was 109% and the remaining activity at 1 µM (CLK2; [4]) was 13%. For the same compound, the remaining activity at 1 µM (CLK2; [5]) was 2%, the “percent remaining enzymatic activity” value (PHK; I1, 1 μM) was 13% and the “percent remaining enzymatic activity” value (PHK; I10) was 1%. The “percent remaining enzymatic activity” value (TTBK2; I10) was 90%, the remaining activity at 1 µM (TTBK2; [3]) was 105% and the remaining activity at 1 µM (Aurora B; [4]) was 97%. It also gave a remaining activity at 1 µM (Aurora B; [5]) of 90%, a KinomeScan value (EGFR (G719C)) of 91 and a remaining activity at 1 µM (SRPK1; [4]) of 89%. For the same compound, the remaining activity at 1 µM (SRPK1; [5]) was 31%, the remaining activity at 1 µM (ZAP70; [4]) was 101% and the remaining activity at 1 µM (ZAP70; [5]) was 85%. The remaining activity at 1 µM (RSK2; [4]) was 117%, the remaining activity at 1 µM (RSK2; [5]) was 94% and the “percent remaining enzymatic activity” value (VEG-FR; I1, 1 μM) was 104%. The “percent remaining enzymatic activity” value (VEG-FR; I10) was 100%, the remaining activity at 1 µM (MARK1; [4]) was 89% and the remaining activity at 1 µM (MARK1; [5]) was 77%. The remaining activity at 1 µM (ERK2; [4]) was 94%, the remaining activity at 1 µM (ERK2; [5]) was 71% and the KinomeScan value (SYK) was 80. For the same compound, the “kinase selectivity, interactions detected” value (panel of 451 kinases) was “no interactions detected with kinases other than LRRK2[G2019S] with the exception of TTK and RPS6KA4”, the KinomeScan value (IRAK4) was 100 and the remaining activity at 1 µM (NEK6; [4]) was 101%. For the same compound, the remaining activity at 1 µM (NEK6; [5]) was 83%, the remaining activity at 1 µM (CAMK1; [4]) was 80% and the remaining activity at 1 µM (CAMK1; [5]) was 34%. The KinomeScan value (MST1) was 100, the KinomeScan value (JNK3) was 67 and the remaining activity at 1 µM (HIPK1; [4]) was 95%. For the same compound, the remaining activity at 1 µM (HIPK1; [5]) was 44%, the “percent remaining enzymatic activity” value (p38a MAPK; I10) was 104% and the remaining activity at 1 µM (p38a MAPK; [3]) was 90%. The KinomeScan value (EGFR (L861Q)) was 57, the remaining activity at 1 µM (PAK5; [4]) was 89% and the remaining activity at 1 µM (PAK5; [5]) was 70%. For the same compound, the remaining activity at 1 µM (ERK8; [4]) was 108%, the remaining activity at 1 µM (ERK8; [5]) was 71% and the “percent remaining enzymatic activity” value (PINK; I1, 1 μM) was 105%. For the same compound, the “percent remaining enzymatic activity” value (PINK; I10) was 89%, the remaining activity at 1 µM (MARK3; [4]) was 120% and the remaining activity at 1 µM (MARK3; [5]) was 92%. The remaining activity at 1 µM (LKB1; [4]) was 103%, the remaining activity at 1 µM (LKB1; [5]) was 96% and the KinomeScan value (EPHB2) was 98. For the same compound, the KinomeScan value (CSNK1G2) was 100, the remaining activity at 1 µM (CK1δ; [4]) was 74% and the remaining activity at 1 µM (CK1δ; [5]) was 33%. For the same compound, the remaining activity at 1 µM (DAPK1; [4]) was 21%, the remaining activity at 1 µM (DAPK1; [5]) was 5% and the KinomeScan value [1] was 99. It also gave a remaining activity at 1 µM (DYRK3; [4]) of 74%, a remaining activity at 1 µM (DYRK3; [5]) of 30% and a KinomeScan value (ULK1) of 100. It also gave a KinomeScan value [2] of 93.

Reference: patent US10913744B2, “LRRK2 inhibitors and methods of making and using the same” (Dana-Farber Cancer Institute, Inc., priority 2015, dated 2021)
